Experimental data: article PMC3412067 (Journal of medicinal chemistry, 2012)
Entries after “also recorded” stand apart in the source; their conditions may differ. Where two headings read alike, the source gives them in different places. Marks after values point to notes of the source that are not given here.

What was measured:
CD-1 mice [1] = experiment: Radiant heat tail flick analgesia assay; assay type: in vivo, mouse; details: for analgesic activity (in words): tail flick, doses as high as 10 mg/kg
mice [2] = experiment: Respiratory depression assay; assay type: in vivo, mouse; details: 15 2.5 mg/kg s.c., morphine 20 mg/kg s.c., about 4-fold analgesic ED50; n=5
MOR-1 (mu) = MOR-1 (mu) (Mus musculus, UniProt P42866); experiment: Competition binding against 125I-BNtxA in CHO cells stably expressing MOR-1
KOR-1 (kappa) = KOR-1 (kappa) (Mus musculus, UniProt P33534); experiment: Competition binding against 125I-BNtxA in CHO cells stably expressing KOR-1
DOR-1 (delta) = DOR-1 (delta) (Mus musculus, UniProt P32300); experiment: Competition binding against 125I-BNtxA in CHO cells stably expressing DOR-1; details: for fold lower affinity for delta receptors: compared to 15
6TM/E11 sites = 6TM/E11 sites (Mus musculus, UniProt P42866); assay type: binding; details: compared to 15
CD-1 mice [3] = details: cited from earlier work
knockout mouse = details: cited from earlier work
mice [4] = details: cited from earlier work
mice [5] = details: cited from earlier work; remark: listed apart in the source
mice [6] = details: cited from earlier work; remark: listed apart in the source
[7] = cited from earlier work

In the case of `C=CCN1CC[C@]23c4c5ccc(O)c4O[C@H]2[C@H](NC(=O)c2cccc(C(F)(F)F)c2)CC[C@@]3(O)[C@H]1C5` [Compound 24, 17-Allyl-3,14β-dihydroxy-4,5α-epoxy-6β-[(3′-trifluoromethyl)benzamido]morphinan], the “analgesic activity (in words)” value (CD-1 mice [1]; s.c.) is reported as “potent analgesic actions”.
With `CN1CC[C@]23c4c5ccc(O)c4O[C@H]2[C@@H](O)C=C[C@H]3[C@H]1C5` [morphine, reference compound] the “effect on respiratory rate (in words)” value (mice [2]) was “decreases respiratory depression”.
In the case of `C=CCN1CC[C@]23c4c5ccc(O)c4O[C@H]2[C@H](NC(=O)c2ccccc2)CC[C@@]3(O)[C@H]1C5` [Compound 22, 17-Allyl-3,14β-dihydroxy-4,5α-epoxy-6β-(benzamido)morphinan], the “fold lower affinity for mu receptors” value (MOR-1 (mu); compared to 15) is reported as “about 20 fold”, the “fold lower affinity for kappa receptors” value (KOR-1 (kappa); compared to 15) is reported as about 180 fold and the “fold lower affinity for delta receptors” value (DOR-1 (delta)) is reported as about 25 fold. The “fold lower binding affinity for the 6TM/E11 site” value (“fold lower binding affinity” below) (6TM/E11 sites) was “over 20 fold”.
With `C=CCN1CC[C@]23c4c5ccc(O)c4O[C@H]2[C@H](NC(=O)c2ccccc2I)CC[C@@]3(O)[C@H]1C5` [Compound 17, 17-Allyl-3,14β-dihydroxy-4,5α-epoxy-6β-[(2′-iodo)benzamido]morphinan] the “fold lower affinity for mu receptors” value (MOR-1 (mu); compared to 15) was “approximately 10 fold”, the “fold lower affinity for kappa receptors” value (KOR-1 (kappa); compared to 15) was “approximately 10 fold” and the “fold lower affinity for delta receptors” value (DOR-1 (delta)) was “approximately 10 fold”. The “fold lower binding affinity” value (6TM/E11 sites) was 100 fold and the “analgesic activity (in words)” value (CD-1 mice [1]; s.c.) was “eliminated its analgesic activity”.
`C=CCN1CC[C@]23c4c5ccc(O)c4O[C@H]2[C@H](NC(=O)CCCCC)CC[C@@]3(O)[C@H]1C5` [Compound 34, 17-Allyl-3,14β-dihydroxy-4,5α-epoxy-6β-(hexylamido)morphinan] showed a Ki (KOR-1 (kappa)) of 9150 ± 940 pM.
For `C=CCN1CC[C@]23c4c5ccc(O)c4O[C@H]2[C@H](NC(=O)c2cccc(I)c2)CC[C@@]3(O)[C@H]1C5` [Compound 15, 17-Allyl-3,14β-dihydroxy-4,5α-epoxy-6β-[(3′-iodo)benzamido]morphinan], the “fold lower affinity for mu receptors” value (MOR-1 (mu); compared to 1) was “about 2 fold”, the “fold lower affinity for kappa receptors” value (KOR-1 (kappa); compared to 1) was “about 2 fold” and the “fold more potent an analgesic than morphine” value (CD-1 mice [1]; compared to morphine) was 10 fold. For the same molecule, the “effect on respiratory rate (in words)” value (mice [2]) was “did not depress respiratory rate; also recorded: no respiratory depression”.
In the case of `C=CCN1CC[C@]23c4c5ccc(O)c4O[C@H]2[C@H](NC(=O)c2cccc(OC)c2)CC[C@@]3(O)[C@H]1C5` [Compound 25, 17-Allyl-3,14β-dihydroxy-4,5α-epoxy-6β-[(3′-methoxy)benzamido]morphinan], the “fold mu selectivity over delta” value (MOR-1 (mu); mu vs delta) is reported as 100 fold, the “fold lower binding affinity” value (6TM/E11 sites) is reported as 10 fold and the “fold greater analgesic potency” value (CD-1 mice [1]; compared to 15) is reported as “over 3 fold”. The “analgesic activity (in words)” value (CD-1 mice [1]; s.c.) was “potent analgesic actions”.
`O=C(NC1CCC2(O)C3Cc4ccc(O)c5c4C2(CCN3CC2CC2)C1O5)c1cccc(I)c1` (stereo not shown) [Compound 125IBNtxA, reference compound] gave a Kd (MOR-1 (mu); read-out: 125IBNtxA KD MOR-1, radioligand KD) of 110 pM, a Kd (KOR-1 (kappa); read-out: 125IBNtxA KD KOR-1, radioligand KD) of 30 pM and a Kd (DOR-1 (delta); read-out: 125IBNtxA KD DOR-1, radioligand KD) of 240 pM.
In the case of `C=CCN1CC[C@]23c4c5ccc(O)c4O[C@H]2[C@H](NC(=O)c2ccc(-c4ccccc4)cc2)CC[C@@]3(O)[C@H]1C5` [Compound 32, 17-Allyl-3,14β-dihydroxy-4,5α-epoxy-6β-[(4′-phenyl)benzamido]morphinan], the “analgesic activity (in words)” value (CD-1 mice [1]; s.c.) is reported as “not analgesic”.
For `CN1CC[C@]23c4c5ccc(O)c4O[C@H]2[C@H](NC(=O)c2cccc(I)c2)CC[C@@]3(O)[C@H]1C5` [Compound 14], the “analgesic activity (in words)” value (CD-1 mice [1]; s.c.) was “No analgesia could be detected”.
With `C=CCN1CC[C@]23c4c5ccc(O)c4O[C@H]2[C@@H](NC(=O)c2cccc(I)c2)CC[C@@]3(O)[C@H]1C5` [Compound 16, 17-Allyl-3,14β-dihydroxy-4,5α-epoxy-6α-[(3′-iodo)benzamido]morphinan] the “fold lower affinity for mu receptors” value (MOR-1 (mu); compared to 15) was 23 fold, the “fold lower affinity for kappa receptors” value (KOR-1 (kappa); compared to 15) was 150 fold and the “fold lower affinity for delta receptors” value (DOR-1 (delta)) was 3 fold. The “fold lower binding affinity” value (6TM/E11 sites) was 33 fold and the “fold higher ED50 / lower analgesic activity” value (CD-1 mice [1]; compared to 15) was 10 fold.
For “17-Allyl-3,14β-dihydroxy-4,5α-epoxy-6β-[2-adamantylamido]morphinan [Compound 37]”, the “Tail flick analgesia ED50 mg/kg (95%CL)” value (CD-1 mice [1]; s.c., CD-1 mice, radiant heat tail flick, (95% confidence limits)) was over 10 mg/kg.
In the case of `O=C(N[C@@H]1CC[C@@]2(O)[C@H]3Cc4ccc(O)c5c4[C@@]2(CCN3CC2CC2)[C@H]1O5)c1cccc(I)c1` [Compound 1, 3-Iodobenzoylnaltrexamide], the “Tail flick analgesia ED50 mg/kg (95%CL)” value (CD-1 mice [3]; (95% confidence limits), values from the literature ref 26) is given as 0.39 (0.15, 0.58) ^a mg/kg, the “cross tolerance to morphine (in words)” value (CD-1 mice [3]) is given as “no observable” and the “analgesic potency fold greater than morphine” value (CD-1 mice [3]; compared to morphine ref 26) is given as 10 fold. The “analgesic activity in E11 knockout mouse (in words)” value (knockout mouse; E11 knockout mouse, disruption of exon 11-associated variants ref 26) was “without activity”, the “analgesic activity in MOR-1/DOR-1/KOR-1 triple knockout mouse (in words)” value (knockout mouse; triple knockout mouse lacking traditional mu, delta and kappa1 receptors ref 26) was “retained full analgesic activity” and the “respiratory depression (in words)” value (mice [4]) was “no observable respiratory depression”. For the same molecule, the “inhibition of gastrointestinal transit (in words)” value (mice [5]) was “limited inhibition of gastrointestinal transit”, the “physical dependence (in words)” value (mice [6]) was “no observable” and the “rewarding behavior in the conditioned place preference assay (in words)” value [7] was “no observable”.
